Source: patent US5288709A, “Erythromycin derivatives” (priority 1991, dated 1994)
≈ marks a conversion by molar mass, not a printed value. Like-named read-outs stand apart in the source and are kept apart here.

Key:
Assay in all cases: In-vitro antimicrobial activity primary screen (agar dilution MIC)
Format in all cases: cell-based
[1] = system: Enterobacter aerogenes ATCC 13048; conditions: Klebsiella aerogenes, ATCC13048, 24 h
Description: (§1) The antimicrobial spectra of several of the compounds of the present invention were tested as described below.
(§2) Twelve petri dishes containing successive aqueous dilutions of the test compounds, mixed with 10 mL of sterilized Brain Heart Infusion (BHI) agar (Difco 0418-01-5), were prepared. Each plate was inoculated with 1:100 (or 1:10 for slow growing strains (primarily Micrococcus and Streptococcus) dilutions of up to 32 different microorganisms, using a Steers replicator block. The inoculated plates were incubated at 35 37° C. for 20-24 hours. In addition, a control plate, using BHI agar containing no test compound, was prepared and incubated at the beginning and the end of each test.
(§3) An additional plate containing a compound having known susceptibility patterns for the organisms being tested and belonging to the same antibiotic class as the test compounds was also prepared and incubated as a further control, as well as to provide test-to test comparability.
(§4) After incubation, each plate was read. The MIC (minimum inhibitory concentration) is defined as the lowest concentration of test compound yielding no growth, a slight haze, or sparsely isolated colonies on the inoculum spot as compared to the growth control containing no test compound.

[2] = system: Staphylococcus aureus A5177; conditions: Staphylococcus aureus A5177, BHI agar, 20-24 h
Description: as §1, §2, §3, §4

Escherichia coli H560 = conditions: Escherichia coli, H560, 24 h
Description: as §1, §2, §3, §4

Escherichia coli SS = conditions: BHI agar, 20-24 h
Description: as §1, §2, §3, §4

[3] = system: Enterococcus faecium ATCC 8043; conditions: Enterococcus faecium, ATCC8043, 24 h
Description: as §1, §2, §3, §4

Escherichia coli DC-2 = conditions: Escherichia coli, DC2, 24 h
Description: as §1, §2, §3, §4

[4] = system: Micrococcus luteus ATCC 4698; conditions: Micrococcus luteus, ATCC4698, 24 h, BHI agar, 20-24 h
Description: as §1, §2, §3, §4

[5] = system: Staphylococcus aureus 45 RAR2; conditions: Staphylococcus aureus, 45RAR2, 24 h, BHI agar, 20-24 h
Description: as §1, §2, §3, §4

Staphylococcus aureus 45 = conditions: BHI agar, 20-24 h
Description: as §1, §2, §3, §4

Pseudomonas cepacia 2961 = conditions: Burkholderia cepacia, 2961, 24 h, BHI agar, 20-24 h
Description: as §1, §2, §3, §4

[6] = system: Klebsiella pneumoniae ATCC 8045; conditions: Klebsiella pneumoniae, ATCC8045, 24 h
Description: as §1, §2, §3, §4

[7] = system: Streptococcus bovis A5169; conditions: Streptococcus equinus, BHI agar, 20-24 h
Description: as §1, §2, §3, §4

Escherichia coli JUHL = conditions: Escherichia coli, 24 h
Description: as §1, §2, §3, §4

[8] = system: Providencia stuartii CMX 640; conditions: Providencia stuartii, CMX640, 24 h
Description: as §1, §2, §3, §4

Acinetobacter SP CMX 669 = conditions: Acinetobacter, SPCMX669, 24 h
Description: as §1, §2, §3, §4

[9] = system: Pseudomonas aeruginosa K799/61; conditions: Pseudomonas aeruginosa K799/61, BHI agar, 20-24 h
Description: as §1, §2, §3, §4

[10] = system: Staphylococcus epidermidis 3519; conditions: BHI agar, 20-24 h
Description: as §1, §2, §3, §4

[11] = system: Micrococcus luteus ATCC 9341; conditions: 20-24 h
Description: as §1, §2, §3, §4

[12] = system: Streptococcus agalactiae CMX 508; conditions: 20-24 h
Description: as §1, §2, §3, §4

[13] = system: Streptococcus pyrogenes 2548 INDUC; conditions: BHI agar, 20-24 h
Description: as §1, §2, §3, §4

[14] = system: Pseudomonas aeruginosa K799/WT; conditions: Pseudomonas aeruginosa, K799/WT, 24 h
Description: as §1, §2, §3, §4

[15] = system: Staphylococcus aureus ATCC 6538P; conditions: Staphylococcus aureus, ATCC6538P, 24 h, BHI agar, 20-24 h
Description: as §1, §2, §3, §4

[16] = system: Pseudomonas aeruginosa A5007; conditions: Pseudomonas aeruginosa, A5007, 24 h
Description: as §1, §2, §3, §4

[17] = system: Streptococcus pyrogenes EES61; conditions: BHI agar, 20-24 h, read-out: MIC
Description: as §1, §2, §3, §4

[18] = system: Pseudomonas aeruginosa BMH10; conditions: Pseudomonas aeruginosa, BMH10, 24 h, BHI agar, 20-24 h
Description: as §1, §2, §3, §4

[19] = system: Staphylococcus aureus CMX 686B; conditions: CMX686B, BHI agar, 20-24 h, read-out: MIC
Description: as §1, §2
(§5) An additional plate containing a compound having known susceptibility patterns for the organisms being tested and belonging to the same antibiotic class as the test compounds was also prepared and incubated as a further control, as well as to provide test-to test comparability. Erythromycin A was used for this purpose.
as §4

[20] = system: Staphylococcus aureus CMX 553; conditions: Staphylococcus aureus, CMX553, 24 h, BHI agar, 20-24 h, read-out: MIC
Description: as §1, §2, §5, §4

[21] = system: Staphylococcus aureus CMX 503A; conditions: Staphylococcus aureus, CMX503A, 24 h, BHI agar, 20-24 h, read-out: MIC
Description: as §1, §2, §5, §4

[22] = Escherichia coli H560, BHI agar, 20-24 h
[23] = Pseudomonas aeruginosa, K799/61, 24 h
[24] = Staphylococcus epidermidis, 3519, 24 h
[25] = Micrococcus luteus, ATCC9341, 24 h, BHI agar
[26] = Streptococcus agalactiae, CMX508, 24 h, BHI agar

`CC[C@H]1OC(=O)[C@H](C)[C@@H](O[C@H]2C[C@@](C)(OC)[C@H](N=CN(C)C)[C@H](C)O2)[C@H](C)[C@@H](O[C@@H]2O[C@H](C)C[C@H](N(C)C)[C@H]2O)[C@](C)(O)C[C@@H](C)[C@@H]2O[C@@]1(C)C(=O)[C@H]2C` [Example 9, (4"R,9S)-9-Deoxo-4",11,12-trideoxy-9,12-epoxy-4"-[[(dimethyamino)methylene]amino]-11-oxoerythromycin A] gave an MIC [1] of over 100 µg/mL, an MIC ([2]; Staphylococcus aureus, A5177, 24 h) of 0.78 µg/mL (≈ 1.01 µM) and an MIC (Escherichia coli H560; [22]) of 50 µg/mL (≈ 64.9 µM). It also gave an MIC (Escherichia coli SS; read-out: MIC) of 0.78 µg/mL (≈ 1.01 µM), an MIC [3] of 0.1 µg/mL (≈ 0.13 µM) and an MIC (Escherichia coli DC-2) of over 100 µg/mL. It also gave an MIC [4] of 0.2 µg/mL (≈ 0.26 µM), an MIC [5] of 0.78 µg/mL (≈ 1.01 µM) and an MIC (Staphylococcus aureus 45; read-out: MIC) of 0.39 µg/mL (≈ 0.506 µM). For the same compound, the MIC (Pseudomonas cepacia 2961) was over 100 µg/mL, the MIC [6] was over 100 µg/mL and the MIC ([7]; read-out: MIC) was under 0.005 µg/mL. For the same compound, the MIC (Escherichia coli JUHL) was over 100 µg/mL, the MIC [8] was over 100 µg/mL and the MIC (Acinetobacter SP CMX 669) was 50 µg/mL (≈ 64.9 µM). For the same compound, the MIC [9, 23] was 3.1 µg/mL (≈ 4.03 µM), the MIC [10, 24] was 0.39 µg/mL (≈ 0.506 µM) and the MIC [11, 25] was 0.02 µg/mL (≈ 0.026 µM). The MIC [12, 26] was 0.01 µg/mL (≈ 0.013 µM), the MIC ([13]; read-out: MIC) was 6.2 µg/mL (≈ 8.05 µM) and the MIC [14] was 100 µg/mL (≈ 130 µM). It also gave an MIC [15] of 0.39 µg/mL (≈ 0.506 µM), an MIC [16] of over 100 µg/mL and an MIC [17] of under 0.005 µg/mL. It also gave an MIC [18] of over 100 µg/mL, an MIC [19] of 0.39 µg/mL (≈ 0.506 µM) and an MIC [20] of 0.39 µg/mL (≈ 0.506 µM). For the same compound, the MIC [21] was 0.39 µg/mL (≈ 0.506 µM).

`CC[C@H]1OC(=O)[C@H](C)[C@@H](O[C@H]2C[C@@](C)(OC)[C@H](NCc3ccccc3)[C@H](C)O2)[C@H](C)[C@@H](O[C@@H]2O[C@H](C)C[C@H](N(C)C)[C@H]2O)[C@](C)(O)C[C@@H](C)[C@@H]2O[C@@]1(C)C(=O)[C@H]2C` [Example 12, (4"R,9S)-9-Deoxo-4", 11,12-trideoxy-9,12-epoxy-11-oxo-4"-[(phenylmethyl)amino]erythromycin A] was tested, and the MIC [1] was over 100 µg/mL, the MIC ([2]; read-out: MIC) was 0.39 µg/mL (≈ 0.484 µM) and the MIC (Escherichia coli H560) was over 100 µg/mL. It also gave an MIC (Escherichia coli SS; read-out: MIC) of 3.1 µg/mL (≈ 3.85 µM), an MIC [3] of 0.2 µg/mL (≈ 0.248 µM) and an MIC (Escherichia coli DC-2) of over 100 µg/mL. The MIC [4] was 0.39 µg/mL (≈ 0.484 µM), the MIC [5] was 0.39 µg/mL (≈ 0.484 µM) and the MIC (Staphylococcus aureus 45; read-out: MIC) was 0.2 µg/mL (≈ 0.248 µM). The MIC (Pseudomonas cepacia 2961) was over 100 µg/mL, the MIC [6] was over 100 µg/mL and the MIC ([7]; A5169, 24 h) was 0.05 µg/mL (≈ 0.0621 µM). For the same compound, the MIC (Escherichia coli JUHL) was over 100 µg/mL, the MIC [8] was over 100 µg/mL and the MIC (Acinetobacter SP CMX 669) was over 100 µg/mL. The MIC [9, 23] was 3.1 µg/mL (≈ 3.85 µM), the MIC [10, 24] was 0.39 µg/mL (≈ 0.484 µM) and the MIC ([11]; ATCC9341, BHI agar, read-out: MIC) was 0.05 µg/mL (≈ 0.0621 µM). For the same compound, the MIC [12, 26] was 0.1 µg/mL (≈ 0.124 µM), the MIC ([13]; Streptococcus, 2548INDUC, 24 h) was 3.1 µg/mL (≈ 3.85 µM) and the MIC [14] was 100 µg/mL (≈ 124 µM). It also gave an MIC [15] of 0.39 µg/mL (≈ 0.484 µM), an MIC [16] of over 100 µg/mL and an MIC [17] of 0.1 µg/mL (≈ 0.124 µM). The MIC [18] was over 100 µg/mL, the MIC [19] was 0.39 µg/mL (≈ 0.484 µM) and the MIC [20] was 0.2 µg/mL (≈ 0.248 µM). The MIC [21] was 0.39 µg/mL (≈ 0.484 µM).

`CC[C@H]1OC(=O)[C@H](C)[C@@H](O[C@H]2C[C@@](C)(OC)[C@@H](OC(N)=O)[C@H](C)O2)[C@H](C)[C@@H](O[C@@H]2O[C@H](C)C[C@H](N(C)C)[C@H]2O)[C@](C)(O)C[C@@H](C)[C@@H]2O[C@@]1(C)[C@@H](O)[C@H]2C` [Example 17, (9S,11S)-4"-O-Aminocarbonyl-9-deoxo-12-deoxy-9,12-epoxyerythromycin A] gave an MIC ([1]; Enterobacter aerogenes ATCC 13048, BHI agar, 20-24 h) of 50 µg/mL (≈ 65.7 µM), an MIC ([2]; read-out: MIC) of 12.5 µg/mL (≈ 16.4 µM) and an MIC (Escherichia coli H560; [22]) of 25 µg/mL (≈ 32.9 µM). The MIC (Escherichia coli SS; Escherichia coli, 24 h) was 0.2 µg/mL (≈ 0.263 µM), the MIC [3] was 0.2 µg/mL (≈ 0.263 µM) and the MIC (Escherichia coli DC-2; Escherichia coli DC-2, BHI agar, 20-24 h) was 50 µg/mL (≈ 65.7 µM). The MIC [4] was 0.2 µg/mL (≈ 0.263 µM), the MIC [5] was 0.39 µg/mL (≈ 0.513 µM) and the MIC (Staphylococcus aureus 45; Staphylococcus aureus, 45, 24 h) was 0.78 µg/mL (≈ 1.03 µM). It also gave an MIC (Pseudomonas cepacia 2961) of over 100 µg/mL, an MIC ([6]; Klebsiella pneumoniae ATCC 8045, BHI agar, 20-24 h) of 25 µg/mL (≈ 32.9 µM) and an MIC ([7]; A5169, 24 h) of 0.05 µg/mL (≈ 0.0657 µM). It also gave an MIC (Escherichia coli JUHL; Escherichia coli JUHL, BHI agar, 20-24 h) of 50 µg/mL (≈ 65.7 µM), an MIC [8] of over 100 µg/mL and an MIC (Acinetobacter SP CMX 669) of 50 µg/mL (≈ 65.7 µM). The MIC ([9]; read-out: MIC) was 0.78 µg/mL (≈ 1.03 µM), the MIC ([10]; read-out: MIC) was 0.78 µg/mL (≈ 1.03 µM) and the MIC [11, 25] was 0.05 µg/mL (≈ 0.0657 µM). It also gave an MIC ([12]; CMX508, BHI agar, read-out: MIC) of 0.02 µg/mL (≈ 0.0263 µM), an MIC ([13]; read-out: MIC) of 1.56 µg/mL (≈ 2.05 µM) and an MIC [14] of 25 µg/mL (≈ 32.9 µM). For the same compound, the MIC [15] was 0.2 µg/mL (≈ 0.263 µM), the MIC [16] was over 100 µg/mL and the MIC [17] was 0.02 µg/mL (≈ 0.0263 µM). The MIC [18] was 25 µg/mL (≈ 32.9 µM), the MIC [19] was 0.39 µg/mL (≈ 0.513 µM) and the MIC [20] was 0.39 µg/mL (≈ 0.513 µM). For the same compound, the MIC [21] was 0.39 µg/mL (≈ 0.513 µM).
